Measurements reported in US8188078B2 (Sanofi-Aventis, priority 2007, dated 2012).
Counter-ions that a name gives are not always drawn.

Tests used:
[1] = molecular target: RON (Homo sapiens, UniProt Q04912); experiment: Test B: HTRF RON test in 96-well format; type: biochemical
Protocol: B) HTRF RON Test in 96-Well Format
The inhibitory potency (IC50) of molecules on the enzymatic activity of kinase phosphorylation RON is determined by the HTRF technique. The activity of the kinase is evaluated by measuring the phosphorylation of the substrate polyGAT by the enzyme, in the presence of ATP.
Final RON 5 nM is incubated in the presence of the molecule to be tested (for a final concentration range from 0.17 nM to 10 μM, final DMSO 3%) in buffer MOPS 10 mM pH 7, DTT 1 mM, Tween 20 0.01%. This pre-incubation is performed in 96 half-well black plates in a volume of 35 μl for 30 minutes at room temperature.
The reaction is initiated by adding 15 μl of a mixture of substrates constituted of biotinylated poly-(GAT) 1 μg/ml final and ATP 10 μM final in the presence of MgCl2 5 mM final for a final volume of 50 μl.
After incubation for 30 min at room temperature, the reaction is stopped with 30 μl of a mixture of Hepes 100 mM final pH 7, potassium fluoride 400 mM final, BSA 0.1% and EDTA 133 mM in the presence of 80 ng per well of antibodies Streptavidin ITS-XL665 Cis-Bio Int. and 18 ng per well of anti-phosphotyrosine PT66 labelled with europium cryptate.
After incubation for 2 hours at room temperature, reading is carried out at 2 wavelengths 620 nm and 665 nm in a Genios TECAN reader for the TRACE/HTRF technique and the percentage inhibition is calculated according to the 665/620 ratios.

[2] = molecular target: T1, c-MET (Homo sapiens, UniProt P08581); experiment: Test A: HTRF Met test in 96-well format; type: biochemical
T1 construct: The recombinant DNA His-Tev-MET (956-1390) in pFastBac(Invitrogen); His (N, cleaved yes); Tev (TEV protease site) (N, cleaved yes); made in house; host or cells: SF21 insect cells (baculovirus, pFastBac)
How it was run: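 Percent inhibition was calculated from the HTRF 665/620 ratio, using Eu-cryptate anti-phosphotyrosine PT66 plus streptavidin-XL added with EDTA and read after 2 h. The reaction ran 10 min at room temperature: 5 nM tag-cleaved MET (956–1390), 10 µM ATP, 1 µg/ml poly-GAT, and compound from 0.17 nM to 10 µM in 3% DMSO.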

T1 sequence (P08581 956-1390): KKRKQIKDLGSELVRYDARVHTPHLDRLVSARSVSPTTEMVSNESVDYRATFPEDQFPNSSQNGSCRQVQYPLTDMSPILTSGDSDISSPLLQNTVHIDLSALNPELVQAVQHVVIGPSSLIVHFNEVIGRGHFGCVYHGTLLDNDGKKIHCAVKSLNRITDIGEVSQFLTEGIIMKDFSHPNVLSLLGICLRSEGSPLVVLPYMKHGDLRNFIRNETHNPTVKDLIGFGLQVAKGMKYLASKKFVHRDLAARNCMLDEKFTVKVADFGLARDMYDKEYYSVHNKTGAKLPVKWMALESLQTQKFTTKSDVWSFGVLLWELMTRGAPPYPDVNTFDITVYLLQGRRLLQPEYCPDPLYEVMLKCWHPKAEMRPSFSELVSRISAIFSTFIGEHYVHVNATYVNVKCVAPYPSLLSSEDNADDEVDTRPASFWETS
RON, sequence (Q04912 25-1400): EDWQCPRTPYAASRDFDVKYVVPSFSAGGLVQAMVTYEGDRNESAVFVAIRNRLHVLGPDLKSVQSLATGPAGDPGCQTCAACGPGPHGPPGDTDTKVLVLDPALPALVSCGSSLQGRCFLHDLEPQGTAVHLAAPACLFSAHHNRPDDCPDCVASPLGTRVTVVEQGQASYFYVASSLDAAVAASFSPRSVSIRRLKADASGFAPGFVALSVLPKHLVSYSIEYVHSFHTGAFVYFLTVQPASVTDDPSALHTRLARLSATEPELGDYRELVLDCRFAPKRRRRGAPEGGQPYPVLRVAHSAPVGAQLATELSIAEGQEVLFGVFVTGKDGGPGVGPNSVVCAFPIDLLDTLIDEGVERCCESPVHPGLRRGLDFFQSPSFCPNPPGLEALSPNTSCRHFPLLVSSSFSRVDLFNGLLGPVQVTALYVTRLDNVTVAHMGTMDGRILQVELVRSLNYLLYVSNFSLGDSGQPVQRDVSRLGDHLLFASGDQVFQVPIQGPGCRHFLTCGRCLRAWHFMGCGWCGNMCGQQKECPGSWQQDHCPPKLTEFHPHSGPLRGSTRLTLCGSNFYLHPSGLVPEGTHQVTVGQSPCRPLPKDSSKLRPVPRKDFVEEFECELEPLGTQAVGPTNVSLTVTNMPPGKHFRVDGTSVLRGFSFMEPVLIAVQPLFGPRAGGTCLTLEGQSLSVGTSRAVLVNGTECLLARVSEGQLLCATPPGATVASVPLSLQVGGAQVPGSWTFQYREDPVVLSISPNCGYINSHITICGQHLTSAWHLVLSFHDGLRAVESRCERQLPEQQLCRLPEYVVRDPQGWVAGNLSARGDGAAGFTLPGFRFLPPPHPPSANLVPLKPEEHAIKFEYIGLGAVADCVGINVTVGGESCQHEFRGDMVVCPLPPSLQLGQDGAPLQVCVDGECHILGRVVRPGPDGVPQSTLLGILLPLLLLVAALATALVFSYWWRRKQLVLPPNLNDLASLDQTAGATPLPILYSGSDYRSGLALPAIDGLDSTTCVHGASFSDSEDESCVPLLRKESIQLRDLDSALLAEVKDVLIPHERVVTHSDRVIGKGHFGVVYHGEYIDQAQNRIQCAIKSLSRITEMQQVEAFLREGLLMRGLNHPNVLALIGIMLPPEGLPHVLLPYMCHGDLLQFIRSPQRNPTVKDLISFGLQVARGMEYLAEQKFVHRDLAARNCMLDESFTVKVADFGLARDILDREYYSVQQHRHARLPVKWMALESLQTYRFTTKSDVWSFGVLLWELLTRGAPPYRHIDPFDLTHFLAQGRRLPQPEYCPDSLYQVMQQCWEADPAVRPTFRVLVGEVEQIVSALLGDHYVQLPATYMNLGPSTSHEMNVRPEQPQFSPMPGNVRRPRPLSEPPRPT

| IC50 [1] [nM] | IC50 [2] [nM] | SMILES |
| --- | --- | --- |
| 500 to 10000 | < 100 | CC(Oc1ccc2nc(NC(=O)NCCN3CCOCC3)sc2c1)c1ccccc1C(F)(F)F (stereo not drawn) [Example 19, 1-(2-morpholin-4-ylethyl)-3-(6-{1-[2-(trifluoromethyl)phenyl]ethoxy}-1,3-benzothiazol-2-yl)urea] |
| 500 to 10000 | < 100 | O=C(NCCN1CCOCC1)Nc1nc2cc(F)c(OCc3c(Cl)cccc3Cl)cc2s1 [Example 21, 1-{6-[(2,6-dichlorobenzyl)oxy]-5-fluoro-1,3-benzothiazol-2-yl}-3-(2-morpholin-4-ylethyl)urea] |
| < 500 | < 100 | CC(Oc1ccc2nc(NC(=O)NCCN3CCOCC3)sc2c1)c1c(Cl)ccc(F)c1Cl (stereo not drawn) [Example 24, 1-{6-[1-(2,6-dichloro-3-fluorophenyl)ethoxy]-1,3-benzothiazol-2-yl}-3-(2-morpholin-4-ylethyl)urea] |
| 500 to 10000 | < 100 | Cc1ccc(F)c(C(C)Oc2ccc3nc(NC(=O)NCCN4CCOCC4)sc3c2)c1Cl (stereo not drawn) [Example 28, 1-{6-[1-(2-chloro-6-fluoro-3-methylphenyl)ethoxy]-1,3-benzothiazol-2-yl}-3-(2-morpholin-4-ylethyl)urea] |
| < 500 | < 100 | CC(Oc1cc2sc(NC(=O)NCCN3CCOCC3)nc2cc1F)c1c(Cl)cccc1Cl (stereo not drawn) [Example 29, 1-{6-[1-(2,6-dichlorophenyl)ethoxy]-5-fluoro-1,3-benzothiazol-2-yl}-3-(2-morpholin-4-ylethyl)urea] |
| < 500 | < 100 | CC(Oc1cc2sc(NC(=O)NCCN3CCOCC3)nc2cc1F)c1c(Cl)ccc(F)c1Cl (stereo not drawn) [Example 31, 1-{6-[1-(2,6-dichloro-3-fluorophenyl)ethoxy]-5-fluoro-1,3-benzothiazol-2-yl}-3-(2-morpholin-4-ylethyl)urea] |
| 500 to 10000 | < 100 | CC(Oc1ccc2nc(NC(=O)NCCN3CCC(Cc4ccccc4)CC3)sc2c1)c1c(Cl)ccc(F)c1Cl (stereo not drawn) [Example 34, 1-[2-(4-benzylpiperidin-1-yl)ethyl]-3-{6-[1-(2,6-dichloro-3-fluorophenyl)ethoxy]-1,3-benzothiazol-2-yl}urea] |
| 500 to 10000 | < 100 | CC(Oc1ccc2nc(NC(=O)NCCN3CCN(Cc4ccccc4)CC3)sc2c1)c1c(Cl)ccc(F)c1Cl (stereo not drawn) [Example 35, 1-[2-(4-benzylpiperazin-1-yl)ethyl]-3-{6-[1-(2,6-dichloro-3-fluorophenyl)ethoxy]-1,3-benzothiazol-2-yl}urea] |
| 500 to 10000 | < 100 | CC(Oc1ccc2nc(NC(=O)NCCN3CCN(C(=O)OC(C)(C)C)CC3)sc2c1)c1c(Cl)ccc(F)c1Cl (stereo not drawn) [Example 36, 1,1-dimethylethyl 4-{2-[({6-[1-(2,6-dichloro-3-fluorophenyl)ethoxy]-1,3-benzothiazol-2-yl}carbamoyl)amino]ethyl}piperazine-1-carboxylate] |
| < 500 | 100 to 10000 | CC(Oc1ccc2nc(NC(=O)NCCN3CCNCC3)sc2c1)c1c(Cl)ccc(F)c1Cl.O=C(O)C(F)(F)F (stereo not drawn) [Example 37, 1-{6-[1-(2,6-Dichloro-3-fluorophenyl)ethoxy]-1,3-benzothiazol-2-yl}-3-(2-piperazin-1-ylethyl)urea trifluoroacetate] |
| < 500 | < 100 | CC(Oc1ccc2nc(NC(=O)NCCC3CCNCC3)sc2c1)c1c(Cl)ccc(F)c1Cl (stereo not drawn) [Example 39, 1-{6-[1-(2,6-Dichloro-3-fluorophenyl)ethoxy]-1,3-benzothiazol-2-yl}-3-(2-piperidin-4-ylethyl)urea trifluoroacetate] |
| 500 to 10000 | < 100 | CC(Oc1ccc2nc(NC(=O)NCCCn3cccc3)sc2c1)c1c(Cl)ccc(F)c1Cl (stereo not drawn) [Example 40, 1-{6-[1-(2,6-dichloro-3-fluorophenyl)ethoxy]-1,3-benzothiazol-2-yl}-3-[3-(1H-pyrrol-1-yl)propyl]urea] |
| 500 to 10000 | < 100 | CC(Oc1ccc2nc(NC(=O)NCCCN3CCC(Cc4ccccc4)CC3)sc2c1)c1c(Cl)ccc(F)c1Cl (stereo not drawn) [Example 41, 1-[3-(4-benzylpiperidin-1-yl)propyl]-3-{6-[1-(2,6-dichloro-3-fluorophenyl)ethoxy]-1,3-benzothiazol-2-yl}urea] |
| 500 to 10000 | < 100 | CC(Oc1ccc2nc(NC(=O)NCCCN3CCOCC3)sc2c1)c1c(Cl)ccc(F)c1Cl (stereo not drawn) [Example 42, 1-{6-[1-(2,6-dichloro-3-fluorophenyl)ethoxy]-1,3-benzothiazol-2-yl}-3-(3-morpholin-4-ylpropyl)urea] |
| < 500 | < 100 | CC(Oc1ccc2nc(NC(=O)NCCCN(C)C)sc2c1)c1c(Cl)ccc(F)c1Cl (stereo not drawn) [Example 43, 1-{6-[1-(2,6-dichloro-3-fluorophenyl)ethoxy]-1,3-benzothiazol-2-yl}-3-[3-(dimethylamino)propyl]urea] |
| 500 to 10000 | < 100 | CC(Oc1ccc2nc(NC(=O)NCCCN3CCCCC3)sc2c1)c1c(Cl)ccc(F)c1Cl (stereo not drawn) [Example 44, 1-{6-[1-(2,6-dichloro-3-fluorophenyl)ethoxy]-1,3-benzothiazol-2-yl}-3-(3-piperidin-1-ylpropyl)urea] |
| 500 to 10000 | < 100 | CC(Oc1ccc2nc(NC(=O)NCCCN3CCCC3=O)sc2c1)c1c(Cl)ccc(F)c1Cl (stereo not drawn) [Example 45, 1-{6-[1-(2,6-dichloro-3-fluorophenyl)ethoxy]-1,3-benzothiazol-2-yl}-3-[3-(2-oxopyrrolidin-1-yl)propyl]urea] |
| 500 to 10000 | < 100 | CC(Oc1ccc2nc(NC(=O)NCCCN3CCN(Cc4c(F)cccc4Cl)CC3)sc2c1)c1c(Cl)ccc(F)c1Cl (stereo not drawn) [Example 46, 1-{3-[4-(2-chloro-6-fluorobenzyl)piperazin-1-yl]propyl}-3-{6-[1-(2,6-dichloro-3-fluorophenyl)ethoxy]-1,3-benzothiazol-2-yl}urea] |
| 500 to 10000 | < 100 | CC(Oc1ccc2nc(NC(=O)NCCCN3C(C)CCCC3C)sc2c1)c1c(Cl)ccc(F)c1Cl (stereo not drawn) [Example 47, 1-{6-[1-(2,6-dichloro-3-fluorophenyl)ethoxy]-1,3-benzothiazol-2-yl}-3-[3-(2,6-dimethylpiperidin-1-yl)propyl]urea] |
| < 500 | < 100 | CC(Oc1ccc2nc(NC(=O)NCCCN3CCCCCC3)sc2c1)c1c(Cl)ccc(F)c1Cl (stereo not drawn) [Example 48, 1-(3-azepan-1-ylpropyl)-3-{6-[1-(2,6-dichloro-3-fluorophenyl)ethoxy]-1,3-benzothiazol-2-yl}urea] |
| 500 to 10000 | < 100 | CC(Oc1ccc2nc(NC(=O)NCCCN3CCN(Cc4ccccc4)CC3)sc2c1)c1c(Cl)ccc(F)c1Cl (stereo not drawn) [Example 49, 1-[3-(4-benzylpiperazin-1-yl)propyl]-3-{6-[1-(2,6-dichloro-3-fluorophenyl)ethoxy]-1,3-benzothiazol-2-yl}urea] |
| 500 to 10000 | < 100 | CC(Oc1ccc2nc(NC(=O)NCCN3CCCCC3)sc2c1)c1c(Cl)ccc(F)c1Cl (stereo not drawn) [Example 50, 1-{6-[1-(2,6-dichloro-3-fluorophenyl)ethoxy]-1,3-benzothiazol-2-yl}-3-(2-piperidin-1-ylethyl)urea] |
| 500 to 10000 | < 100 | CC(Oc1ccc2nc(NC(=O)NCCN3CCCC3)sc2c1)c1c(Cl)ccc(F)c1Cl (stereo not drawn) [Example 51, 1-{6-[1-(2,6-dichloro-3-fluorophenyl)ethoxy]-1,3-benzothiazol-2-yl}-3-(2-pyrrolidin-1-ylethyl)urea] |
| < 500 | < 100 | CC(Oc1ccc2nc(NC(=O)NCCC3CCCN3C)sc2c1)c1c(Cl)ccc(F)c1Cl (stereo not drawn) [Example 53, 1-{6-[1-(2,6-dichloro-3-fluorophenyl)ethoxy]-1,3-benzothiazol-2-yl}-3-[2-(1-methylpyrrolidin-2-yl)ethyl]urea] |
| 500 to 10000 | < 100 | CC(Oc1ccc2nc(NC(=O)NCCN3CCCCCC3)sc2c1)c1c(Cl)ccc(F)c1Cl (stereo not drawn) [Example 54, 1-(2-azepan-1-ylethyl)-3-{6-[1-(2,6-dichloro-3-fluorophenyl)ethoxy]-1,3-benzothiazol-2-yl}urea] |
| < 500 | < 100 | CC(Oc1ccc2nc(NC(=O)NCCN3CCN(C)CC3)sc2c1)c1c(Cl)ccc(F)c1Cl (stereo not drawn) [Example 55, 1-{6-[1-(2,6-dichloro-3-fluorophenyl)ethoxy]-1,3-benzothiazol-2-yl}-3-[2-(4-methylpiperazin-1-yl)ethyl]urea] |
| 500 to 10000 | < 100 | CC(Oc1ccc2nc(NC(=O)NCCN3C(C)CCCC3C)sc2c1)c1c(Cl)ccc(F)c1Cl (stereo not drawn) [Example 56, 1-{6-[1-(2,6-dichloro-3-fluorophenyl)ethoxy]-1,3-benzothiazol-2-yl}-3-[2-(2,6-dimethylpiperidin-1-yl)ethyl]urea] |
